The subject of this experiment is B6C3F1 mice, ip Sarcoma M5076, median survival T/C. In words: NCI In Vivo Anticancer Drug Screen. Data for tumor model Sarcoma M5076 (intraperitoneal) in B6C3F1 mice. The conditions noted are these: endpoint: median survival time, higher = longer survival. In outline:
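Transplantable tumour in mice; compound-treated vs vehicle-treated groups. Read-out: survival. Value = treated/control ratio.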

[1] abbreviates: dose: 25.0 mg/kg/injection, schedule: Q04DX004 (ip), vehicle: saline with Tween-80.
Setting [2] is: dose: 50.0 mg/kg/injection, schedule: Q04DX004 (ip), vehicle: saline with Tween-80.
The mark [3] stands for this setting: dose: 6.25 mg/kg/injection, schedule: Q04DX004 (ip), vehicle: Klucel (hydroxypropylcellulose) (HPC).
[4] abbreviates: dose: 12.5 mg/kg/injection, schedule: Q04DX004 (ip), vehicle: Klucel (hydroxypropylcellulose) (HPC).
Setting [5] is: dose: 25.0 mg/kg/injection, schedule: Q04DX004 (ip), vehicle: Klucel (hydroxypropylcellulose) (HPC).
The mark [6] stands for this setting: dose: 50.0 mg/kg/injection, schedule: Q04DX004 (ip), vehicle: Klucel (hydroxypropylcellulose) (HPC).
[7] abbreviates: dose: 100.0 mg/kg/injection, schedule: Q04DX004 (ip), vehicle: Klucel (hydroxypropylcellulose) (HPC).
The mark [8] stands for this setting: dose: 200.0 mg/kg/injection, schedule: Q04DX004 (ip), vehicle: Klucel (hydroxypropylcellulose) (HPC).
The mark [9] stands for this setting: dose: 37.5 mg/kg/injection, schedule: Q04DX004 (ip), vehicle: Klucel (hydroxypropylcellulose) (HPC).
[10] abbreviates: dose: 75.0 mg/kg/injection, schedule: Q04DX004 (ip), vehicle: Klucel (hydroxypropylcellulose) (HPC).
Where [11] appears, read: dose: 150.0 mg/kg/injection, schedule: Q04DX004 (ip), vehicle: Klucel (hydroxypropylcellulose) (HPC).
[12] abbreviates: dose: 300.0 mg/kg/injection, schedule: Q04DX004 (ip), vehicle: Klucel (hydroxypropylcellulose) (HPC).

Several values for one entry are separate records, joined by “and”; a condition that tells them apart may be missing. Equal entries are not always repeated. Toxic doses and inconclusive results are not listed.

Consider `CC(=O)OC1OC(=O)C(C)(C(C)=O)C1C` (stereo not drawn), for which the T/C reads like this: (dose: 2.5 mg/kg/injection, schedule: Q04DX004 (ip), vehicle: distilled water + alcohol) 100 % of control; (dose: 5.0 mg/kg/injection, schedule: Q04DX004 (ip), vehicle: distilled water + alcohol) 105 % of control; (dose: 10.0 mg/kg/injection, schedule: Q04DX004 (ip), vehicle: distilled water + alcohol) 104 % of control; (dose: 20.0 mg/kg/injection, schedule: Q04DX004 (ip), vehicle: distilled water + alcohol) 104 % of control; (dose: 40.0 mg/kg/injection, schedule: Q04DX004 (ip), vehicle: distilled water + alcohol) 95 % of control.
As to `OC1(c2ccccc2)c2ccccc2NC2=NCCN21` (stereo not drawn), the T/C reads like this: under setting [1], 95 % of control; under setting [2], 96 % of control.
On to `CO[C@@]12[C@@H]3N[C@@H]3CN1C1=C(C(=O)C(NCCc3ccccn3)=C(C)C1=O)[C@@H]2COC(N)=O`, for which the T/C is 112 % of control (dose: 3.2 mg/kg/injection, schedule: Q04DX004 (ip), vehicle: saline with Tween-80); 122 % of control (dose: 5.4 mg/kg/injection, schedule: Q04DX004 (ip), vehicle: saline with Tween-80); 172 % of control and 197 % of control under setting [1]; 200 % of control (dose: 42.0 mg/kg/injection, schedule: Q04DX004 (ip), vehicle: saline with Tween-80); 280 % of control (dose: 69.0 mg/kg/injection, schedule: Q04DX004 (ip), vehicle: saline with Tween-80).
With `Cc1cc(=O)n(Cc2ccco2)c(=S)[nH]1`, the T/C under setting [2] is 105 % of control; the T/C (dose: 100.0 mg/kg/injection, schedule: Q04DX004 (ip), vehicle: saline with Tween-80) was 105 % of control; the T/C (dose: 200.0 mg/kg/injection, schedule: Q04DX004 (ip), vehicle: saline with Tween-80) is 100 % of control; the T/C (dose: 400.0 mg/kg/injection, schedule: Q04DX004 (ip), vehicle: saline with Tween-80) was 89 % of control; the T/C (dose: 800.0 mg/kg/injection, schedule: Q04DX004 (ip), vehicle: saline with Tween-80) was 106 % of control.
Regarding `O=C([O][Bi]([c]1ccccc1)[c]1ccccc1)c1ccccc1`, the T/C was 96 % of control under setting [3]; 111 % of control under setting [4]; 101 % of control under setting [5]; 95 % of control under setting [6]; 91 % of control under setting [7].
For the molecule `[CH3][Sn]([CH3])([Cl])[c]1cc[c]([Sn]([CH3])([CH3])[Cl])cc1`, the T/C reads like this: (dose: 0.25 mg/kg/injection, schedule: Q04DX004 (ip), vehicle: saline) 108 % of control; (dose: 0.5 mg/kg/injection, schedule: Q04DX004 (ip), vehicle: saline) 105 % of control; (dose: 1.0 mg/kg/injection, schedule: Q04DX004 (ip), vehicle: saline) 87 % of control; (dose: 2.0 mg/kg/injection, schedule: Q04DX004 (ip), vehicle: saline) 91 % of control.
Turning to `COc1ccccc1NC(=O)C1C(=O)C(=O)N(c2ccccc2OC)C1=O` (stereo not drawn), the T/C under setting [6] is 105 % of control, the T/C under setting [7] is 97 % of control and the T/C under setting [8] is 96 % of control.
Take `CC(C)(C)c1cc2c3c(c1)Oc1cc(C(C)(C)C)cc4c1C3(O)c1c(cc(C(C)(C)C)cc1O4)O2`: the T/C reads like this: under setting [3], 111 % of control; (dose: 9.0 mg/kg/injection, schedule: Q04DX004 (ip), vehicle: Klucel (hydroxypropylcellulose) (HPC)) 113 % of control; under setting [4], 113 % of control.
On to `O=[N+]([O-])O.[Ga]`, for which the T/C (dose: 25.0 mg/kg/injection, schedule: Q04DX005 (ip), vehicle: saline) was 111 % of control; the T/C (dose: 50.0 mg/kg/injection, schedule: Q04DX005 (ip), vehicle: saline) is 115 % of control; the T/C (dose: 100.0 mg/kg/injection, schedule: Q04DX005 (ip), vehicle: saline) is 115 % of control.
In the case of `COC(C(=O)C(O)C(C)O)C1CC2C=C3C=C(OC4CC(OC5CC(O)C(OC)C(C)O5)C(OC(C)=O)C(C)O4)C(C)C(=O)C3=C(O)C2=C(O)C1OC1CC(OC2CC(OC3CC(C)(O)C(O)C(C)O3)C(O)C(C)O2)C(O)C(C)O1` (stereo not drawn), the T/C reads like this: (dose: 1.0 mg/kg/injection, schedule: Q04DX004 (ip), vehicle: saline with Tween-80) 104 % of control; (dose: 2.0 mg/kg/injection, schedule: Q04DX004 (ip), vehicle: saline with Tween-80) 112 % of control; (dose: 4.0 mg/kg/injection, schedule: Q04DX004 (ip), vehicle: saline with Tween-80) 107 % of control and 112 % of control; (dose: 8.0 mg/kg/injection, schedule: Q04DX004 (ip), vehicle: saline with Tween-80) 104 % of control and 108 % of control; (dose: 16.0 mg/kg/injection, schedule: Q04DX004 (ip), vehicle: saline with Tween-80) 107 % of control and 111 % of control; (dose: 32.0 mg/kg/injection, schedule: Q04DX004 (ip), vehicle: saline with Tween-80) 117 % of control. Under “dose: 64.0 mg/kg/injection, schedule: Q04DX004 (ip), vehicle: saline with Tween-80”, the T/C is 115 % of control.
Consider `COC(=O)NC1C(C)OC(OC2C/C=C(/C)C3C=CC4C(OC5CC(OC6CC(O)C(OC7CC(O)C(OC)C(C)O7)C(C)O6)C(O)C(C)O5)C(C)CC(C)C4C3(C)/C(O)=C3\C(=O)OC4(CC(C)C(CO)=CC4/C=C\2C)C3=O)CC1(C)[N+](=O)[O-]` (stereo not drawn), for which the T/C was 105 % of control under setting [5], 100 % of control under setting [6], 87 % of control under setting [7] and 100 % of control under setting [8].
Consider `CCn1c(-c2ccc(OC(C)=O)cc2)c(C)c2cc(OC(C)=O)ccc21`, for which the T/C was 102 % of control under setting [5], 107 % of control under setting [6], 87 % of control under setting [7] and 90 % of control under setting [8].
In the case of `N#CC1C(=O)NC(=S)NC1c1ccc(Cl)c(Cl)c1` (stereo not drawn), the T/C reads like this: under setting [9], 94 % of control; under setting [10], 99 % of control; under setting [11], 97 % of control; under setting [12], 91 % of control; (dose: 600.0 mg/kg/injection, schedule: Q04DX004 (ip), vehicle: Klucel (hydroxypropylcellulose) (HPC)) 89 % of control.
In the case of `O=C(NNC(=O)c1cccc(C(=O)NNC(=O)c2ccc(Cl)c(Cl)c2)n1)c1ccc(Cl)c(Cl)c1`, the T/C reads like this: under setting [5], 102 % of control; under setting [6], 96 % of control.
With `O=C(NCc1ccccc1)C1C(=O)C(=O)N(Cc2ccccc2)C1=O` (stereo not drawn), the T/C under setting [6] was 92 % of control; the T/C under setting [7] is 102 % of control; the T/C under setting [8] was 100 % of control; the T/C (dose: 400.0 mg/kg/injection, schedule: Q04DX004 (ip), vehicle: Klucel (hydroxypropylcellulose) (HPC)) was 100 % of control; the T/C (dose: 800.0 mg/kg/injection, schedule: Q04DX004 (ip), vehicle: Klucel (hydroxypropylcellulose) (HPC)) is 96 % of control.
With `NC(=O)CCC(N)C(=O)O` (stereo not drawn), the T/C (dose: 3.12 mg/kg/injection, schedule: Q04DX004 (ip), vehicle: saline) is 100 % of control; the T/C (dose: 6.25 mg/kg/injection, schedule: Q04DX004 (ip), vehicle: saline) was 104 % of control and 105 % of control; the T/C (dose: 12.5 mg/kg/injection, schedule: Q04DX004 (ip), vehicle: saline) is 97 % of control and 99 % of control; the T/C (dose: 25.0 mg/kg/injection, schedule: Q04DX004 (ip), vehicle: saline) was 98 % of control and 108 % of control; the T/C (dose: 50.0 mg/kg/injection, schedule: Q04DX004 (ip), vehicle: saline) was 105 % of control and 111 % of control; the T/C (dose: 100.0 mg/kg/injection, schedule: Q04DX004 (ip), vehicle: saline) is 103 % of control and 124 % of control.
As for `CC(C)(O)/C=C/C(=O)[C@](C)(O)[C@H]1[C@H](O)C[C@@]2(C)[C@@H]3CC=C4[C@@H](C=C(O)C(=O)C4(C)C)[C@]3(C)C(=O)C[C@]12C`, the T/C (dose: 0.5 mg/kg/injection, schedule: Q04DX004 (ip), vehicle: water) was 111 % of control; the T/C (dose: 1.0 mg/kg/injection, schedule: Q04DX004 (ip), vehicle: water) is 117 % of control; the T/C (dose: 1.67 mg/kg/injection, schedule: Q04DX004 (ip), vehicle: water) was 113 % of control.
For the molecule `O=C(Nc1ccc(Cl)c(Cl)c1)C1C(=O)C(=O)N(c2ccc(Cl)c(Cl)c2)C1=O` (stereo not drawn), the T/C is 91 % of control under setting [6], 92 % of control under setting [7] and 89 % of control under setting [8].
`CSC1=NCc2c(sc3c2CCCC3)N1`: the T/C is, setting by setting: under setting [9], 98 % of control; under setting [10], 103 % of control; under setting [11], 99 % of control; under setting [12], 102 % of control.

The values above are taken from PubChem BioAssay AID292 (DTP/NCI, 2004).
